Measurements as given in PubChem BioAssay AID2060890 (Molecular Pharmacology Branch, DTP, NCI, 2025).

System: LG0703-F948-PDC complex spheroid viability
Assay: Anticancer human tumor LG0703-F948-PDC patient-derived lung adenocarcinoma cell line growth inhibition [RAS]
Conditions: for IC50: curve of first compound; for viability, T/C: stronger effect = lower value
Procedure, shortened: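 Agents were tested in combination matrices in half-log decrements from a top concentration at or near clinical Cmax (10 microM if undetermined). Targets were multi-cell spheroids of tumour lines plus HUVEC and MSC stromal cells.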

[1] = second compound 0.000949 µM, first compound 0.0316 µM
[2] = second compound 0.000949 µM, first compound 0.1 µM
[3] = second compound 0.000949 µM, first compound 0.316 µM
[4] = second compound 0.000949 µM, first compound 1 µM
[5] = second compound 0.003 µM, first compound 0.0316 µM
[6] = second compound 0.003 µM, first compound 0.1 µM
[7] = second compound 0.003 µM, first compound 0.316 µM
[8] = second compound 0.003 µM, first compound 1 µM
[9] = second compound 0.00949 µM, first compound 0.0316 µM
[10] = second compound 0.00949 µM, first compound 0.1 µM
[11] = second compound 0.00949 µM, first compound 0.316 µM
[12] = second compound 0.00949 µM, first compound 1 µM
[13] = second compound 0.03 µM, first compound 0.0316 µM
[14] = second compound 0.03 µM, first compound 0.1 µM
[15] = second compound 0.03 µM, first compound 0.316 µM
[16] = second compound 0.03 µM, first compound 1 µM
[17] = second compound 0.0949 µM, first compound 0.0316 µM
[18] = second compound 0.0949 µM, first compound 0.1 µM
[19] = second compound 0.0949 µM, first compound 0.316 µM
[20] = second compound 0.0949 µM, first compound 1 µM
[21] = second compound 0.3 µM, first compound 0.0316 µM
[22] = second compound 0.3 µM, first compound 0.1 µM
[23] = second compound 0.3 µM, first compound 0.316 µM
[24] = second compound 0.3 µM, first compound 1 µM
[25] = second compound 0.000949 µM, first compound 3.16 µM
[26] = second compound 0.000949 µM, first compound 10 µM
[27] = second compound 0.003 µM, first compound 3.16 µM
[28] = second compound 0.003 µM, first compound 10 µM
[29] = second compound 0.00949 µM, first compound 3.16 µM
[30] = second compound 0.00949 µM, first compound 10 µM
[31] = second compound 0.03 µM, first compound 3.16 µM
[32] = second compound 0.03 µM, first compound 10 µM
[33] = second compound 0.0949 µM, first compound 3.16 µM
[34] = second compound 0.0949 µM, first compound 10 µM
[35] = second compound 0.3 µM, first compound 3.16 µM
[36] = second compound 0.3 µM, first compound 10 µM
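Also: spheroids exposed to agents for 7 days.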
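For viability, T/C in this document: 100% = DMSO vehicle wells.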

For `CCN1CCN(Cc2ccc(Nc3ncc(F)c(-c4cc(F)c5nc(C)n(C(C)C)c5c4)n3)nc2)CC1` + CCn1c(-c2cc(N3CCN(C)CC3)cnc2C(C)OC)c2c3cc(ccc31)-c1csc(n1)CC(NC(=O)C1CC1C)C(=O)N1CCCC(N1)C(=O)OCC(C)(C)C2, the IC50 (second compound 0.000949 µM) was > 1 µM, the IC50 (second compound 0.003 µM) was > 1 µM and the IC50 (second compound 0.00949 µM) was < 0.00316 µM. The IC50 (second compound 0.03 µM) was < 0.00316 µM, the IC50 (second compound 0.0949 µM) was < 0.00316 µM and the IC50 (second compound 0.3 µM) was < 0.00316 µM. For the same compound, the viability, T/C (second compound 0.000949 µM, first compound 0.00316 µM) was 82%, the viability, T/C (second compound 0.000949 µM, first compound 0.01 µM) was 68% and the viability, T/C [1] was 60.8%. The viability, T/C [2] was 68.2%, the viability, T/C [3] was 63.9% and the viability, T/C [4] was 52%. It also gave a viability, T/C (second compound 0.003 µM, first compound 0.00316 µM) of 58.2%, a viability, T/C (second compound 0.003 µM, first compound 0.01 µM) of 49.1% and a viability, T/C [5] of 47.7%. The viability, T/C [6] was 53.2%, the viability, T/C [7] was 57% and the viability, T/C [8] was 48.9%. It also gave a viability, T/C (second compound 0.00949 µM, first compound 0.00316 µM) of 26.1%, a viability, T/C (second compound 0.00949 µM, first compound 0.01 µM) of 24.8% and a viability, T/C [9] of 28.4%. It also gave a viability, T/C [10] of 22%, a viability, T/C [11] of 31.7% and a viability, T/C [12] of 34.5%. For the same compound, the viability, T/C (second compound 0.03 µM, first compound 0.00316 µM) was 17%, the viability, T/C (second compound 0.03 µM, first compound 0.01 µM) was 14.6% and the viability, T/C [13] was 14.7%. It also gave a viability, T/C [14] of 17%, a viability, T/C [15] of 18.6% and a viability, T/C [16] of 26.2%. It also gave a viability, T/C (second compound 0.0949 µM, first compound 0.00316 µM) of 10.1%, a viability, T/C (second compound 0.0949 µM, first compound 0.01 µM) of 11.1% and a viability, T/C [17] of 10.2%. The viability, T/C [18] was 11.3%, the viability, T/C [19] was 14.9% and the viability, T/C [20] was 23.9%. For the same compound, the viability, T/C (second compound 0.3 µM, first compound 0.00316 µM) was 9.56%, the viability, T/C (second compound 0.3 µM, first compound 0.01 µM) was 9.57% and the viability, T/C [21] was 8.56%. The viability, T/C [22] was 10.3%, the viability, T/C [23] was 13.5% and the viability, T/C [24] was 18.3%.

`Cc1nc(N2CCC3(CC2)COC(C)C3N)c(CO)nc1Sc1ccnc(N)c1Cl` (stereo unspecified) + CCn1c(-c2cc(N3CCN(C)CC3)cnc2C(C)OC)c2c3cc(ccc31)-c1csc(n1)CC(NC(=O)C1CC1C)C(=O)N1CCCC(N1)C(=O)OCC(C)(C)C2 was tested, and the IC50 (second compound 0.000949 µM) was 0.093 µM, the IC50 (second compound 0.003 µM) was < 0.0316 µM and the IC50 (second compound 0.00949 µM) was < 0.0316 µM. For the same compound, the IC50 (second compound 0.03 µM) was < 0.0316 µM, the IC50 (second compound 0.0949 µM) was < 0.0316 µM and the IC50 (second compound 0.3 µM) was < 0.0316 µM. It also gave a viability, T/C [1] of 68%, a viability, T/C [2] of 48% and a viability, T/C [3] of 32.7%. The viability, T/C [4] was 18.2%, the viability, T/C [25] was 11.3% and the viability, T/C [26] was 8.65%. It also gave a viability, T/C [5] of 32.3%, a viability, T/C [6] of 23.9% and a viability, T/C [7] of 21.1%. For the same compound, the viability, T/C [8] was 14.9%, the viability, T/C [27] was 6.78% and the viability, T/C [28] was 5.16%. For the same compound, the viability, T/C [9] was 26%, the viability, T/C [10] was 15.7% and the viability, T/C [11] was 10.6%. The viability, T/C [12] was 10.2%, the viability, T/C [29] was 6.57% and the viability, T/C [30] was 7.31%. The viability, T/C [13] was 13.2%, the viability, T/C [14] was 11.6% and the viability, T/C [15] was 8.59%. It also gave a viability, T/C [16] of 4.72%, a viability, T/C [31] of 7.7% and a viability, T/C [32] of 5.42%. It also gave a viability, T/C [17] of 10.1%, a viability, T/C [18] of 7.94% and a viability, T/C [19] of 6.73%. The viability, T/C [20] was 6.62%, the viability, T/C [33] was 6.38% and the viability, T/C [34] was 3.71%. The viability, T/C [21] was 7.15%, the viability, T/C [22] was 6.24% and the viability, T/C [23] was 5.96%. It also gave a viability, T/C [24] of 3.97%, a viability, T/C [35] of 3.82% and a viability, T/C [36] of 4.35%.

In the case of `NC1c2ccccc2OC12CCN(c1cnc3c(N4CCCc5ncccc54)n[nH]c3n1)CC2` (stereo unspecified) + CCn1c(-c2cc(N3CCN(C)CC3)cnc2C(C)OC)c2c3cc(ccc31)-c1csc(n1)CC(NC(=O)C1CC1C)C(=O)N1CCCC(N1)C(=O)OCC(C)(C)C2, the IC50 (second compound 0.000949 µM) is reported as < 0.0316 µM, the IC50 (second compound 0.003 µM) is reported as < 0.0316 µM and the IC50 (second compound 0.00949 µM) is reported as < 0.0316 µM. For the same compound, the IC50 (second compound 0.03 µM) was < 0.0316 µM, the IC50 (second compound 0.0949 µM) was < 0.0316 µM and the IC50 (second compound 0.3 µM) was < 0.0316 µM. For the same compound, the viability, T/C [1] was 30.3%, the viability, T/C [2] was 19.3% and the viability, T/C [3] was 11%. It also gave a viability, T/C [4] of 8.58%, a viability, T/C [25] of 5.25% and a viability, T/C [26] of 1.78%. The viability, T/C [5] was 20.3%, the viability, T/C [6] was 11.8% and the viability, T/C [7] was 9.37%. It also gave a viability, T/C [8] of 8.15%, a viability, T/C [27] of 3.56% and a viability, T/C [28] of 1.82%. For the same compound, the viability, T/C [9] was 14.5%, the viability, T/C [10] was 7.88% and the viability, T/C [11] was 5.28%. It also gave a viability, T/C [12] of 4.34%, a viability, T/C [29] of 2.68% and a viability, T/C [30] of 2.25%. For the same compound, the viability, T/C [13] was 8.5%, the viability, T/C [14] was 6.42% and the viability, T/C [15] was 4.71%. It also gave a viability, T/C [16] of 2.66%, a viability, T/C [31] of 2.29% and a viability, T/C [32] of 2.1%. The viability, T/C [17] was 6.81%, the viability, T/C [18] was 4.57% and the viability, T/C [19] was 4.01%. For the same compound, the viability, T/C [20] was 2.85%, the viability, T/C [33] was 3.37% and the viability, T/C [34] was 1.78%. For the same compound, the viability, T/C [21] was 3.46%, the viability, T/C [22] was 4.3% and the viability, T/C [23] was 3.62%. The viability, T/C [24] was 2.74%, the viability, T/C [35] was 1.58% and the viability, T/C [36] was 1.7%.
